Test results from publication PMC4303146, “Investigation of cyanine dyes for in vivo optical imaging of altered mitochondrial membrane potential in tumors” (Cancer Medicine, 2014).

What was measured:
HeLa cells [1] = assay: Cellular localization study (fluorescence microscopy with NAO mitochondria marker); format: cell-based, human; details: 1 μmol/L, 60 min, NAO 100 nmol/L
Procedure: HeLa cells (3 × 10^5 cells) were cultured in a poly-L-lysine coated glass bottom dish for 24 h at 37°C before use. Cells were washed twice with phosphate-buffered saline (PBS) and then incubated with the IC7-1 derivative dissolved in dimethyl sulfoxide (DMSO) (1 μmol/L final concentration) in DMEM supplemented with 5% FBS and 1% penicillin and streptomycin for 60 min. To determine the dye localization, mitochondria were labeled with NAO (100 nmol/L final concentration) for 20 min before completion of the incubation with IC7-1 derivative. Next, the cells were washed twice each with DMEM and PBS. Cells were viewed with a fluorescence microscope under a 100× oil-immersion objective lens. MetaMorph® software (Molecular Devices, LLC, Sunnyvale, CA) was used for imaging analysis.

BSA = BSA (Bos taurus, UniProt P02769); assay: Association constants of IC7-1 derivatives to albumin (fluorimetric titration); format: binding, bovine; details: dye 1 µM, BSA 0-1.0 µM, 30 min; read-out: Ka, association constant of dye-albumin complex (converted)
Procedure: Binding studies of IC7-1 derivatives to albumin were conducted as reported previously (Beckford G et al. The solvatochromic effects of side chain substitution on the binding interaction of novel tricarbocyanine dyes with human serum albumin. Talanta 2012;92: 45-52). Briefly, IC7-1 derivatives (1 µM final concentration) were incubated with BSA (0, 0.4, 0.6, 0.8, and 1.0 µM) for 30 min to equilibrate. The fluorescence intensity was measured following the excitation at 823 nm and the emission from 840 to 900 nm. The interaction between dye D and albumin A can be expressed by Eq. 1:
The association constant for the dye-albumin complex formation can be expressed by Eq. 2:
Then, the association constant Ka of the dye-albumin complex was calculated from the data for the fluorimetric titration of the dye with albumin using Eq. 3:
1/ΔF = 1/k[D] + (1/(k[D]Ka))·(1/[A]) (3)
where k is a constant depending on the instrumentation and quantum efficiency of the process.
Therefore, a plot of the reciprocal of ΔF versus the reciprocal of albumin concentration gives a straight line. The association constant was calculated by dividing the intercept by the slope of the line.

HeLa cell xenograft [2] = assay: In vivo blocking study with uncoupler CCCP; parameters: species or system mice; details: intratumoral CCCP 0.25 mg/kg, imaged 1 and 3 h
Procedure: (§1) Animal experiments were conducted in accordance with institutional guidelines and were approved by the Kyoto University Animal Care Committee. Female nude mice (BALB/c nu/nu 4-weeks old), supplied by Japan SLC, Inc. (Shizuoka, Japan), were housed under a 12 h light/12 h dark cycle and were given free access to food (D10001) and water. HeLa cells (2 × 10^6 cells in 100 μL of PBS) were subcutaneously inoculated into the right hind legs of mice. Fourteen days after implantation, mice were used for the imaging study.
In the in vivo blocking study using an uncoupler, IC7-1-Bu (10 nmol, 100 μL) was administered to tumor-bearing mice via the tail vein immediately after intratumoral injection of CCCP (2.5 mL/kg, 0.25 mg/kg). Mice were imaged 1 and 3 h after administration of the imaging agent using the same method as described above.

HeLa cell xenograft [3] = assay: In vivo blocking study with protein-binding inhibitor warfarin; parameters: species or system mice
Procedure: as §1
An in vivo blocking study using a protein-binding inhibitor was conducted as reported previously. Briefly, IC7-1-Bu (10 nmol, 100 μL) and warfarin (5.5 μmol, 100 μL) were simultaneously administered to mice via the tail vein, and the mice were imaged using the same method as described above.

[4] = Photophysical properties (fluorescence spectroscopy, quantum yield); format: physicochemical
Procedure: IC7-1 derivatives were dissolved in chloroform or 5% FBS to give a concentration of 1 μmol/L for fluorescence spectroscopy analysis. Excitation spectra were measured following the emission at 850 nm, and emission spectra were measured following excitation at 823 nm. Quantum yields were determined using a Fluorolog-3 spectrofluorometer equipped with an integrating sphere.

HeLa cell xenograft [5] = assay: In vivo imaging study in HeLa cell xenograft mice
Procedure: Animal experiments were conducted in accordance with institutional guidelines and were approved by the Kyoto University Animal Care Committee. […] HeLa cells (2 × 10^6 cells in 100 μL of PBS) were subcutaneously inoculated into the right hind legs of mice. Fourteen days after implantation, mice were used for the imaging study.
Clairvivo® OPT measurement and display software ver. 2.6.0.0. (SHIMADZU Co.) was used for imaging analysis.
Exposure time was 5s for the scan at 3 h, and 3s for the other scans. Clairvivo® OPT measurement and display software ver. 2.6.0.0. (SHIMADZU Co., Kyoto, Japan) was used for imaging analysis.

HeLa cells [6] = assay: Cellular uptake study with uncoupler CCCP; format: cell-based, human; details: dye 1 μmol/L, 60 min, CCCP 0-25 μmol/L
Procedure: A cellular uptake study was conducted as reported previously. Briefly, the buffer solution (pH 7.4) for the cellular uptake study was composed of NaCl ([…]), KCl (5.4 mmol/L), CaCl2 (1.2 mmol/L), MgSO4 (0.8 mmol/L), NaH2PO4 (0.8 mmol/L), dextrose (5.6 mmol/L), and 4-(2-hydroxyethyl)-1-piperazineethanesulfonic acid) (5 mmol/L). HeLa cells (1 × 10^6 cells/mL buffer solution) were incubated with carbonyl […] m-chlorophenylhydrazone (CCCP; 0, 0.1, 0.25, 0.5, 0.75, 1, 2.5, 5, 10, and 25 μmol/L) for 5 min at 37°C in 1.5 mL microtubes, followed by the addition of the IC7-1 derivative (1 μmol/L final concentration). After a 60-min incubation with the IC7-1 derivative, the cells were washed twice and resuspended with buffer solution. The fluorescence intensity was measured following the excitation at 823 nm and the emission from 840 to 900 nm, and the normalized intensity (%) was calculated as a percentage of fluorescence intensity obtained with CCCP untreated (0 μmol/L) cells.
The buffer solution (pH 7.4) for the cellular uptake study was composed of NaCl (145 mM), KCl (5.4 mM), CaCl2 (1.2 mM), MgSO4 (0.8 mM), NaH2PO4 (0.8 mM), dextrose (5.6 mM), and HEPES (5 mM). The HeLa cells (1 x 10^6 cells / ml buffer solution) were incubated with an uncoupler (CCCP; 0, 0.1, 0.25, 0.5, 0.75, 1, 2.5, 5, 10, and 25 µM) for 5 min at 37 °C in 1.5 mL microtubes, followed by the addition of IR-780 or IC7-1-Bu (1 µM final concentration) After a 60 min incubation with the dyes, the cells were washed twice and resuspended with buffer solution. Fluorescence intensity was measured following the excitation at 763 nm and the emission from 780 to 880 nm for IR-780, and the excitation at 823 nm and the emission from 840 to 900 nm for IC7-1-Bu. The normalized intensity (%) was calculated as a percentage of fluorescence intensity obtained with CCCP untreated (0 µM) cells.

[7] = biological target: T1, albumin-binding site I (warfarin-binding site) (Bos taurus, UniProt P02769); assay: Protein-binding assay with competitive inhibitors in 5% FBS; format: in vitro ADME, bovine
T1 construct: incubated for 30 min in PBS (pH 7.4) containing 5% DMSO and 5% FBS; from tissue; host or cells: fetal bovine serum (5% in PBS)
Procedure: A protein-binding assay was conducted as reported previously. Briefly, warfarin, ibuprofen, digoxin, and quinidine were used as competitive inhibitors of albumin-binding sites I, II, III, and […], respectively. The inhibitors (0 and 189 μmol/L) were incubated for 30 min in PBS (pH 7.4) containing 5% DMSO and 5% FBS at room temperature. Immediately after the addition of the IC7-1 derivative (1 μmol/L final concentration), the fluorescence intensity was measured following the excitation at 823 nm and the emission from 840 to 900 nm. The normalized intensity (%) was calculated as a percentage of fluorescence intensity obtained from an inhibitor untreated sample.

[8] = parameters: method as in PMID 21469142; details: cited from earlier work

T1 sequence (P02769 25-607): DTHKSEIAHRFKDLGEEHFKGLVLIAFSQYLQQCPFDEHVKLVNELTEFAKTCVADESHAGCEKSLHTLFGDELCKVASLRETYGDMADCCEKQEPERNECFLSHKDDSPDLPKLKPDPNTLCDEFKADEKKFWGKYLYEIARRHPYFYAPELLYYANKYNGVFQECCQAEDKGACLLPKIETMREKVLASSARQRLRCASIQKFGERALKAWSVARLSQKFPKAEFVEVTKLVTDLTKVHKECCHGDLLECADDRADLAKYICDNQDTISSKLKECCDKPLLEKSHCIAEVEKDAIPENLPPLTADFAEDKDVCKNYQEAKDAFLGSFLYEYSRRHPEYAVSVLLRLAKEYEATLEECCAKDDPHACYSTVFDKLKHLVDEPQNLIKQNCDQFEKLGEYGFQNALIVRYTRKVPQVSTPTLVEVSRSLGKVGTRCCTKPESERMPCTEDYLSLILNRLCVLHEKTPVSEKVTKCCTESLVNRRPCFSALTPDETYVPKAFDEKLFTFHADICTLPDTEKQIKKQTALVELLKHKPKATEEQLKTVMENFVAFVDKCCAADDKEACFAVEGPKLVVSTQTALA
Sequence of BSA (P02769 25-607): as above

CCCCN1/C(=C/C=C2\CCCC(/C=C/C3=[N+](CCCC)c4ccc5ccccc5c4C3(C)C)=C2Cl)C(C)(C)c2c1ccc1ccccc21 [IC7-1-Bu, 3-Butyl-2-(2-{3-[2-(3-butyl-1,1-dimethyl-1,3-dihydro-benz[e]indol-2-ylidene)-ethylidene]-2-chloro-cyclohex-1-enyl}-vinyl)-1,1-dimethyl-1H-benz[e]indolium]
Subcellular localization of NIR fluorescence (HeLa cells [1]): colocalized fluorescence with NAO | Kd (BSA): 476 nM | Fluorescence intensity at the tumor after CCCP pretreatment (HeLa cell xenograft [2]): significantly decreased by CCCP pretreatment | Fluorescence intensity after co-administration of warfarin (HeLa cell xenograft [3]; IC7-1-Bu 10 nmol + warfarin 5.5 μmol i.v., 24-72 h): diminished throughout the body | Tumor to neck fluorescence ratio (HeLa cell xenograft [3]; warfarin (+), after 1 day): 2.36 ± 0.09 | Tumor to neck fluorescence ratio (HeLa cell xenograft [3]; warfarin (+), after 2 day): 2.49 ± 0.10 | Tumor to neck fluorescence ratio (HeLa cell xenograft [3]; warfarin (+), after 3 day): 2.46 ± 0.09 | Tumor to neck fluorescence ratio (HeLa cell xenograft [3]; warfarin (−), after 1 day): 1.94 ± 0.11 | Tumor to neck fluorescence ratio (HeLa cell xenograft [3]; warfarin (−), after 2 day): 2.02 ± 0.15 | Tumor to neck fluorescence ratio (HeLa cell xenograft [3]; warfarin (−), after 3 day): 2.07 ± 0.48 | Φ, quantum yield ([4]; 5% FBS): 0.04 | ε, extinction coefficient ([4]; 5% FBS): 130000 mol/L/cm | emmax, maximum emission wavelength ([4]; 5% FBS, 1 μmol/L): 849 nm | exmax, maximum excitation wavelength ([4]; 5% FBS, 1 μmol/L): 823 nm | Φ, quantum yield ([4]; CHCl3): 0.06 | ε, extinction coefficient ([4]; CHCl3): 330000 mol/L/cm | emmax, maximum emission wavelength ([4]; CHCl3, 1 μmol/L): 845 nm | exmax, maximum excitation wavelength ([4]; CHCl3, 1 μmol/L): 823 nm | Retention of tumor fluorescence after i.v. administration (HeLa cell xenograft [5]; 10 nmol i.v.): 72 h | Tumor fluorescence intensity group from ROI analysis (HeLa cell xenograft [5]; 10 nmol i.v.): high intensity group | Fluorescence intensity at the tumor region (HeLa cell xenograft [5]; 10 nmol i.v., 24, 48 and 72 h): strong fluorescence intensity at the tumor region up to 72 h | Tumor depiction in fluorescence images (HeLa cell xenograft [5]; 10 nmol i.v., 24, 48 and 72 h): Tumors were clearly depicted | Normalized cellular fluorescence intensity under CCCP treatment (HeLa cells [6]): reduced cellular fluorescence from treatment with a low CCCP concentration | Absorbance peak and fluorescence in 5% FBS versus 0% FBS solution ([7]; 5% FBS vs 0% FBS): significantly higher in 5% FBS solution than in 0% FBS solution | Normalized fluorescence intensity with warfarin (albumin site I inhibitor) ([7]; 5% FBS, inhibitor 189 μmol/L, dye 1 μmol/L): specifically bound to albumin | Absorbance peak ([7]; FBS solution): 836 nm

CC1(C)C(/C=C/C=C/C=C/C=C2\N(CCCCS(=O)(=O)O)c3ccc4ccccc4c3C2(C)C)=[N+](CCCCS(=O)(=O)[O-])c2ccc3ccccc3c21 [ICG, indocyanine green]
Clearance and tumor accumulation after i.v. administration [8]: rapid clearance through the liver into feces with low accumulation in tumors
